Assay results taken from patent US20170210741A1, “Benzimidazole Compounds, Use As Inhibitors of WNT Signaling Pathway in Cancers, and Methods for Preparation Thereof” (Southern Research Institute, priority 2016, published 2017).
Where two headings read alike, the source gives them in different places.

How the values were obtained:
Assay type in all cases: cell-based
[1] = test system: PANC-1; assay: In vitro cell viability assay (Cell Titer Glo), pancreatic cancer PANC-1; conditions: Homo sapiens, 72 h
Description: (§1) Breast cancer SUM159 was obtained from Asterand and grown according to supplier's recommendation. All other cell lines were obtained from ATCC and cultured in standard cell culture conditions with complete cell culture medium containing 10% FBS.
(§2) Cancer cells were seeded into optically clear tissue culture-treated black 96-well plates (for adherent cells) or low-attachment 96-well plates (for cancer stem cells) at 2,000-5000 cells/50 μL of media per well. The cells were treated with Wnt inhibitors at 0.1 to 10 μM for 72 h. Cell viability was measured by the Cell Titer Glo Assay from Promega.

[2] = test system: Wnt signaling; assay: Wnt signaling reporter assay (Super8XTOPFlash luciferase) in LRP6-expressing HEK293 cells; conditions: Homo sapiens, 24 h treatment, luciferase normalized to β-galactosidase, read-out: IC50 (effects on Wnt signaling)
Description: HEK293 cells were plated into 24-well plates. After overnight culture, the cells were transiently transfected with 0.06 μg of the Super8XTOPFlash luciferase construct, 0.06 μg of β-galactosidase-expressing vector, and 0.06 μg of pCS-Myc-hLRP6 or control vector. After 24 h incubation, cells were treated with each individual compound in triplicate for 24 h. Cells were then lysed, and the luciferase and β-galactosidase activities were determined by the luciferase assay system (Promega) and β-galactosidase assay system (Promega), respectively. The luciferase activity was normalized to the β-galactosidase activity.
Table 2 below illustrates the effects of the disclosed compounds on Wnt signaling in LRP6-expressing HEK293 cells.

[3] = test system: S2VP10; assay: In vitro cell viability assay (Cell Titer Glo), pancreatic cancer S2VP10; conditions: 72 h
Description: as §1, §2

[4] = test system: Suit-2; assay: In vitro cell viability assay (Cell Titer Glo), pancreatic cancer Suit-2; conditions: 72 h
Description: as §1, §2

[5] = test system: HT-29; assay: In vitro cell viability assay (Cell Titer Glo), colorectal cancer HT-29; conditions: Homo sapiens, 72 h
Description: as §1, §2
(§3) Table 4 below illustrates the effects of the disclosed compounds on cell viability of colorectal cancer cell lines.

[6] = test system: HCT116; assay: In vitro cell viability assay (Cell Titer Glo), colorectal cancer HCT116; conditions: Homo sapiens, HCT-116, 72 h
Description: as §1, §2, §3

[7] = test system: 2LMP; assay: In vitro cell viability assay (Cell Titer Glo), breast cancer 2LMP; conditions: 72 h
Description: as §1, §2
(§4) Table 5 below illustrates the effects of the disclosed compounds on cell viability of breast cancer cell lines.

[8] = test system: SUM159; assay: In vitro cell viability assay (Cell Titer Glo), breast cancer SUM159; conditions: 72 h
Description: as §1, §2, §4

[9] = test system: HCC1143; assay: In vitro cell viability assay (Cell Titer Glo), breast cancer HCC1143; conditions: Homo sapiens, 72 h
Description: as §1, §2, §4

[10] = test system: MDA-MB-468; assay: In vitro cell viability assay (Cell Titer Glo), breast cancer MDA-MB-468; conditions: Homo sapiens, 72 h
Description: as §1, §2, §4

[11] = test system: L3.6pl; assay: In vitro cell viability assay (Cell Titer Glo), pancreatic cancer L3.6pl; conditions: Homo sapiens, 72 h
Description: as §1, §2

[12] = PANC-1, adherent, complete medium 10% FBS, read-out: Cell viability (IC50) PANC-1 Adherent
[13] = PANC-1, cancer stem cell (CSC) enriching serum free medium, non-adherent plates, read-out: Cell viability (IC50) PANC-1 CSC
[14] = S2VP10, CSC enriching serum free medium, non-adherent plates, read-out: Cell viability (IC50) S2VP10 CSC
[15] = S2VP10, adherent, complete medium 10% FBS, read-out: Cell viability (IC50) S2VP10 Adherent
[16] = Suit-2, CSC enriching serum free medium, non-adherent plates, read-out: Cell viability (IC50) Suit-2 CSC
[17] = Suit-2, adherent, complete medium 10% FBS, read-out: Cell viability (IC50) Suit-2 Adherent
[18] = HT-29, CSC conditions, read-out: Cell viability (IC50) HT-29 CSC
[19] = HT-29, adherent, read-out: Cell viability (IC50) HT-29 Adherent
[20] = HCT116, CSC conditions, read-out: Cell viability (IC50) HCT116 CSC
[21] = HCT116, adherent, read-out: Cell viability (IC50) HCT116 Adherent
[22] = CSC conditions, read-out: Cell viability (IC50) 2LMP CSC
[23] = adherent, read-out: Cell viability (IC50) 2LMP Adherent
[24] = SUM159, CSC conditions, read-out: Cell viability (IC50) SUM159 CSC
[25] = SUM159, adherent, read-out: Cell viability (IC50) SUM159 Adherent
[26] = HCC1143, CSC conditions, read-out: Cell viability (IC50) HCC1143 CSC
[27] = HCC1143, adherent, read-out: Cell viability (IC50) HCC1143 Adherent
[28] = MDA-MB-468, CSC conditions, read-out: Cell viability (IC50) MDA-MB-468 CSC
[29] = MDA-MB-468, adherent, read-out: Cell viability (IC50) MDA-MB-468 Adherent
[30] = CSC enriching serum free medium, non-adherent plates, read-out: Cell viability (IC50) L3.6pl CSC
[31] = adherent, complete medium 10% FBS, read-out: Cell viability (IC50) L3.6pl Adherent

Compound: Oc1ccc(F)cc1-c1nc2c(Cl)cc(Cl)cc2[nH]1 [Compound 1, 2-(4,6-Dichloro-1H-benzo[d]imidazol-2-yl)-4-fluorophenol]
- IC50 [1, 12]: 1740 nM
- IC50 [1, 13]: 210 nM
- IC50 [2]: 1340 nM
- IC50 [3, 14]: 920 nM
- IC50 [3, 15]: 1620 nM
- IC50 [4, 16]: 2840 nM
- IC50 [4, 17]: 9130 nM

Compound: Oc1ccc(F)cc1-c1nc2cc(Cl)c(F)cc2[nH]1 [Compound 3, 2-(5-Chloro-6-fluoro-1H-benzo[d]imidazol-2-yl)-4-fluorophenol]
- IC50 [1, 12]: 2320 nM
- IC50 [1, 13]: 410 nM
- IC50 [5, 18]: 3090 nM
- IC50 [5, 19]: 6470 nM
- IC50 [2]: 2800 nM
- IC50 [3, 14]: 330 nM
- IC50 [3, 15]: 1100 nM
- IC50 [6, 20]: 180 nM
- IC50 [6, 21]: 1610 nM
- IC50 [4, 16]: 1810 nM
- IC50 [4, 17]: 3760 nM

Compound: Oc1c(Cl)cccc1-c1nc2cc(C(F)(F)F)ccc2[nH]1 [Compound 5, 2-Chloro-6-(5-(trifluoromethyl)-1H-benzo[d]imidazol-2-yl)phenol]
- IC50 [1, 12]: 1330 nM
- IC50 [1, 13]: 180 nM
- IC50 [7, 22]: 0.92 µM
- IC50 [7, 23]: 1.15 µM
- IC50 [2]: 2770 nM
- IC50 [8, 24]: 340 nM
- IC50 [8, 25]: 500 nM
- IC50 [3, 14]: 210 nM
- IC50 [3, 15]: 1040 nM
- IC50 [9, 26]: 500 nM
- IC50 [9, 27]: 1190 nM
- IC50 [4, 16]: 1150 nM
- IC50 [4, 17]: 3160 nM
- IC50 [10, 28]: 170 nM
- IC50 [10, 29]: 1410 nM

Compound: FC(F)(F)c1ccc(-c2nc3c(Cl)cc(Cl)cc3[nH]2)cc1 [Compound 7, 4,6-Dichloro-2-(4-(trifluoromethyl)phenyl)-1H-benzo[d]imidazole]
- IC50 [1, 12]: 4470 nM
- IC50 [1, 13]: 300 nM
- IC50 [7, 22]: 13 µM
- IC50 [7, 23]: 16.8 µM
- IC50 [2]: 6010 nM
- IC50 [8, 24]: 900 nM
- IC50 [8, 25]: 1130 nM
- IC50 [3, 14]: 770 nM
- IC50 [3, 15]: 3880 nM
- IC50 [9, 26]: 700 nM
- IC50 [9, 27]: 4500 nM
- IC50 [4, 16]: 610 nM
- IC50 [4, 17]: 5210 nM
- IC50 [10, 28]: 160 nM
- IC50 [10, 29]: 1290 nM
- IC50 [11, 30]: 660 nM
- IC50 [11, 31]: 570 nM

Compound: FC(F)(F)Oc1ccc(-c2nc3c(Cl)cc(Cl)cc3[nH]2)cc1 [Compound 8, 4,6-Dichloro-2-(4-(trifluoromethoxy)phenyl)-1H-benzo[d]imidazole]
- IC50 [1, 12]: > 10000 nM
- IC50 [1, 13]: 1060 nM
- IC50 [2]: 7920 nM
- IC50 [3, 14]: 770 nM
- IC50 [3, 15]: 4860 nM
- IC50 [4, 16]: 840 nM
- IC50 [4, 17]: 8920 nM
- IC50 [11, 30]: 620 nM
- IC50 [11, 31]: 1190 nM

Compound: Oc1ccc(Cl)cc1-c1nc2cc(Cl)c(Cl)nc2[nH]1 [Compound 9, 4-Chloro-2-(5,6-dichloro-3H-imidazo[4,5-b]pyridin-2-yl)phenol]
- IC50 [5, 18]: 8950 nM
- IC50 [5, 19]: 9760 nM
- IC50 [2]: 1850 nM
- IC50 [3, 14]: 870 nM
- IC50 [3, 15]: 2240 nM
- IC50 [6, 20]: 510 nM
- IC50 [6, 21]: 2090 nM
- IC50 [4, 16]: > 10000 nM
- IC50 [4, 17]: > 10000 nM

Compound: CN1CCN(c2ccc(-c3nc4cc(Cl)c(Cl)cc4[nH]3)cc2)CC1 [Compound 10, 5,6-Dichloro-2-(4-(4-methylpipcrazin-1-yl)phenyl)-1H-benzo[d]imidazole]
- IC50 [5, 18]: 130 nM
- IC50 [5, 19]: 3290 nM
- IC50 [2]: 13 nM
- IC50 [3, 14]: 910 nM
- IC50 [3, 15]: 4760 nM
- IC50 [6, 20]: 21000 nM
- IC50 [6, 21]: 11200 nM
- IC50 [4, 16]: 1340 nM
- IC50 [4, 17]: 5260 nM

Compound: Clc1cc2nc(-c3ccc(N4CCCCC4)cc3)[nH]c2cc1Cl [Compound 11, 5,6-dichloro-2-(4-(piperidin-1-yl)phenyl)-1H-benzo[d]imidazole]
- IC50 [5, 18]: 40 nM
- IC50 [5, 19]: 670 nM
- IC50 [2]: 0.95 nM
- IC50 [3, 14]: > 10000 nM
- IC50 [3, 15]: 1680 nM
- IC50 [6, 20]: 570 nM
- IC50 [6, 21]: 1010 nM
- IC50 [4, 16]: > 10000 nM
- IC50 [4, 17]: 970 nM

Compound: Clc1cc2nc(-c3ccc(N4CCCC4)cc3)[nH]c2cc1Cl [Compound 12, 5,6-dichloro-2-(4-(pyrrolidin-1-yl)phenyl)-1H-benzo[d]imidazole]
- IC50 [5, 18]: 510 nM
- IC50 [5, 19]: 840 nM
- IC50 [2]: 0.93 nM
- IC50 [3, 14]: > 10000 nM
- IC50 [3, 15]: 2580 nM
- IC50 [6, 20]: 2680 nM
- IC50 [6, 21]: 1180 nM
- IC50 [4, 16]: > 10000 nM
- IC50 [4, 17]: 2100 nM

Compound: CN1CCN(c2ccc(-c3nc4cc(Cl)c(Cl)cc4[nH]3)cc2F)CC1 [Compound 27, 5,6-dichloro-2-(3-fluoro-4-(4-methylpiperazin-1-yl)phenyl)-1H-benzo[d]imidazole]
- IC50 [5, 19]: 140 nM
- IC50 [2]: 4.67 nM
- IC50 [3, 14]: 2910 nM
- IC50 [3, 15]: 8310 nM
- IC50 [6, 20]: 1760 nM
- IC50 [6, 21]: 830 nM
- IC50 [4, 16]: 1990 nM
- IC50 [4, 17]: 8920 nM

Compound: c1cc2[nH]c(-c3ccc(N4CCCC4)cc3)nc2cn1 [Compound 28, 2-(4-(pyrrolidin-1-yl)phenyl)-1H-imidazo[4,5-c]pyridine]
- IC50 [5, 18]: 50 nM
- IC50 [5, 19]: 60 nM
- IC50 [2]: 10400 nM
- IC50 [3, 14]: 80 nM
- IC50 [3, 15]: 110 nM
- IC50 [6, 20]: 80 nM
- IC50 [6, 21]: 110 nM
- IC50 [4, 16]: 150 nM
- IC50 [4, 17]: 160 nM

Compound: Fc1cc2[nH]c(-c3ccc(N4CCCC4)cc3)nc2cc1Cl [Compound 31, 5-chloro-6-fluoro-2-(4-(pyrrolidin-1-yl)phenyl)-1H-benzo[d]imidazole]
- IC50 [5, 18]: 40 nM
- IC50 [5, 19]: 590 nM
- IC50 [2]: 330 nM
- IC50 [3, 14]: 750 nM
- IC50 [3, 15]: 510 nM
- IC50 [6, 20]: 160 nM
- IC50 [6, 21]: 580 nM
- IC50 [4, 16]: 940 nM
- IC50 [4, 17]: 950 nM
